According to patent publication US8252822B2, “Heterocyclic compounds and uses as anticancer agents” (Acea Biosciences, Inc., priority 2007, dated 2012):
Like-named read-outs stand apart in the source and are kept apart here.

Assays:
KB = experiment: RT-CES cell proliferation inhibition, KB; type: cell-based; conditions: Homo sapiens
Description: (§1) The biological activity of compounds disclosed herein was monitored and profiled using the Real-Time Cell Electronic Sensing (RT-CES®) system from ACEA Biosciences, Inc. The RT-CES system utilizes cell-substrate impedance technology to monitor cellular behavior inside tissue culture wells in a microtiter plate format. The technology features in the integration of molecular and cell biology with microelectronics and is based on the electronic detection of biological assay process. The details of this cell electronic sensing technology and associated devices, systems and methods of use as described in U.S. provisional application No. 60/379,749, filed on Jul. […]
(§2) For measurement of cell-substrate or cell-electrode impedance using RT-CES technology, microelectrodes having appropriate geometries are fabricated onto the bottom surfaces of microtiter plate or similar device, facing into the wells. […] When there are changes to the biological status of the cells analogue electronic readout signals are measured automatically and in real time, and are converted to digital signals for processing and for analysis. In a RT-CES system, a cell index (arbitrary representation of change in impedance) is automatically derived and provided based on measured electrode impedance values. […]
(§3) To quantify cell status based on the measured cell-electrode impedance, a parameter termed Cell Index is derived. […]

B16-luc = experiment: RT-CES cell proliferation inhibition, B16-luc; type: cell-based, Rat; conditions: Mus musculus
Description: as §1, §2, §3

[1] = system: murine Lewis lung cancer (LLC); experiment: Anti-tumor activity against LLC mice model; type: in vivo, C57 BL/6 mice; conditions: 40 mg/kg; for Tumor Weight / Inhibition Rate (%): LLC, 12 days; for Tumor Weight: qod (Table 14); for Inhibition Rate (%): qod (Table 14; text qd); for Body Weight (g) Start: mouse, in vivo
Experimental: ACEA100160 (2-(4-ethoxyphenyl)amino-4-(6-methylimidazo[1,2-a]pyrimidin-3-yl)thiazole) and ACEA 100162 (2-(4-ethoxyphenyl)amino-4-(6-methylimidazo[2,1-b]thiazol-5-yl)thiazole) are prepared at concentration of 8 mg/ml in solution containing 20% HP-beta-CD dextrose (D5W). The solvent HP-beta-CD solution is used as a vehicle negative control.
LLC: murine Lewis lung cancer cell line.
LLC cells were cultured in DMEM medium with 10% FBS to obtain the necessary cell number for injection subcutaneously (10^7 cells).
Under a sterilized condition, sacrifice the C57 BL/6 murine LLC bearing mice, separate tumor and put it into NS. Chop the tumor into fine pieces with sterilized scissors and then homogenate into cell suspension. Inject 0.2 ml cell suspension (10^6 cells) subcutaneously into the left flank on C57 BL/6 mice. On the first treatment day before iv or ip, implanted animals are randomly divided into seven groups as following. The drugs were administrated in the schedule of Table 13 respectively. The solvent HP-beta-CD solution is used as a vehicle negative control. Observe clinical signs at least daily.
Tumor weight was recorded. The tumor inhibitory rate was calculated as follows: inhibitory rate=1-Wt/W0, where Wt is the average weight of each drug treatment group and W0 is the average weight of negative control group. Results are given as mean±SD values from n animals. Comparisons between groups were made with Student's two-tailed t test and a P<0.05 was considered significant.

A549 cells = experiment: RT-CES cell proliferation inhibition, A549; type: cell-based, Human; conditions: for IC50: Homo sapiens
Description: The biological activity of compounds disclosed herein was monitored and profiled using the Real-Time Cell Electronic Sensing (RT-CES®) system from ACEA Biosciences, Inc. The RT-CES system utilizes cell-substrate impedance technology to monitor cellular behavior inside tissue culture wells in a microtiter plate format. The technology features in the integration of molecular and cell biology with microelectronics and is based on the electronic detection of biological assay process. The details of this cell electronic sensing technology and associated devices, systems and methods of use as described in U.S. provisional application No. 60/379,749, filed on Jul. 20, 2002; U.S. provisional application No. 60/435,400, filed on Dec. 20, 2002; U.S. Provisional application 60/469,572, filed on May 9, 2003, PCT application number PCT/US03/22557, filed on Jul. 18, 2003; PCT application number PCT/US03/22537, filed on Jul. 18, 2003; U.S. patent application Ser. No. 10/705,447, filed on Nov. 10, 2003; U.S. patent application Ser. No. 10/705,615, filed on Nov. 10, 2003, each of which is incorporated by reference. Additional details of RT-CES technology is further disclosed in U.S. provisional application No. 60/519,567, filed on Nov. 12, 2003, and U.S. provisional application No. 60/542,927, filed on Feb. 9, 2004.
For measurement of cell-substrate or cell-electrode impedance using RT-CES technology, microelectrodes having appropriate geometries are fabricated onto the bottom surfaces of microtiter plate or similar device, facing into the wells. Cells are introduced into the wells of the devices, and make contact to and attach to the electrode surfaces. The presence, absence or change of properties of cells affects the electronic and ionic passage on the electrode sensor surfaces. Measuring the impedance between or among electrodes provides important information about biological status of cells present on the sensors. When there are changes to the biological status of the cells analogue electronic readout signals are measured automatically and in real time, and are converted to digital signals for processing and for analysis. In a RT-CES system, a cell index (arbitrary representation of change in impedance) is automatically derived and provided based on measured electrode impedance values. The cell index obtained for a given well reflects: 1) how many cells are attached to the electrode surfaces in this well; 2) how well cells are attached to the electrode surfaces in this well. Thus, the more the cells of same type in similar physiological conditions attach the electrode surfaces, the larger the cell index. And, the better the cells attach to the electrode surfaces (e.g., the cells spread-out more to have larger contact areas, or the cells attach tighter to electrode surfaces), the larger the cell index.
The RT-CES system comprises three components, an electronic sensor analyzer, a device station and 16× or 96× microtiter devices. Microelectrode sensor array was fabricated on glass slides with lithographical microfabrication methods and the electrode-containing slides are assembled to plastic trays to form electrode-containing wells. The device station receives the 16× or 96× microtiter plate devices and is capable of electronically switching any one of the wells to the sensor analyzer for impedance measurement. In operation, the devices with cells cultured in the wells are placed into a device station that is located inside an incubator. Electrical cables connect the device station to the sensor analyzer. Under the RT-CES software control, the sensor analyzer can automatically select wells to be measured and continuously conduct impedance measurements. The impedance data from the analyzer is transferred to a computer, analyzed and processed by the integrated software.
as §3

Br.CCOc1ccc(Nc2nc(-c3c(C)nc4sccn34)cs2)cc1 [Compound 27, 2-(4-ethoxyphenyl)amino-4-(6-methylimidazo[2,1-b]thiazol-5-yl)thiazole]
IC50 (KB; 24 hrs, read-out: IC50 (24 hr)): 22.2 nM | IC50 (KB; 48 hrs, read-out: IC50 (48 hr)): 18.1 nM | IC50 (B16-luc; 24 hrs, read-out: IC50 (24 hr)): 705 nM | IC50 (B16-luc; 48 hrs, read-out: IC50 (48 hr)): 643 nM | Tumor Weight ([1]; IP): 0.70 ± 0.46 g | Inhibition Rate (%) ([1]; IP, listed as 162, 40 mg/kg): 39.2% | Inhibition Rate (%) ([1]; IP, listed as ACEA100162, 40 mg/kg): 39.15% | Tumor Weight ([1]; IV): 0.91 ± 0.18 g | Inhibition Rate (%) ([1]; IV): 25.5% | Body Weight (g) Start ([1]; ip): 19.0 ± 0.8 g | Body Weight (g) Start ([1]; iv): 18.5 ± 1.3 g | concentration at or above which cell indices first decreased with time and then increased (A549 cells; A549, complex kinetic responses): ≥ 62.5 nM | IC50 (A549 cells; A549, 24 hours after compound treatment, normalized Cell Index, read-out: IC50 (24 hr)): 57.4 nM | IC50 (A549 cells; A549, 48 hrs, read-out: IC50 (48 hr)): 29.1 nM | inhibitory ability against the proliferation of A549 cells (A549 cells; various concentrations studied, time-dependent cell index): exhibited inhibitory ability against the proliferation of A549 cells
